Data published in patent US12077531B2, “Imidazopyridinone compound” (KISSEI PHARMACEUTICAL CO., LTD., priority 2018, dated 2024).

Molecular target: human PHD2184-418 (Homo sapiens (Human), UniProt Q9GZT9)
Assay: PHD2 inhibitory test (fluorescence polarization, binding between PHD2 and HIF-1α)
Details: human PHD2184-418, FITC-labeled HIF-1α556-574, 2 μM 2-oxoglutarate, 37° C. 60 minutes
Description: Test Example 1 PHD2 Inhibitory Test
(1) Expression and Preparation of Human PHD2184-418
Human PHD2184-418 containing amino acid residues 184 to 418 of the protein represented by CAC42509 (GenBank accession ID) was expressed and prepared by the following method.
An expression construct of human PHD2184-418 containing N-terminal histidine tag was introduced into pET-30a (+) vector, and the sequence was confirmed. This vector was introduced into BL21 (DE3) strain and cultured at 37° C. in LB medium containing antibiotics. After culturing, a cell lysis solution was added to the cells, and then the cells were disrupted by sonication. The disrupted suspension was centrifuged and the supernatant was purified by Ni column to give human PHD2184-418.
Human HIF-1α556-574 (FITC-labeled HIF-1α556-574), containing N-terminal FITC-Ahx, containing amino acid residues 556 to 574 (partial peptide) of HIF-1α was used as a substrate. Using FITC-labeled HIF-1α556-574, the competitive inhibition between 2-oxoglutarate and test compounds (PHD inhibitor) was evaluated based on the change in fluorescence polarization by the following method.
An enzyme (human PHD2184-418) and the substrate were diluted with an assay buffer (pH 7.4) containing 10 mM HEPES, 150 mM NaCl, 10 μM MnCl2-4H2O, 2 μM 2-oxoglutarate and 0.05% Tween-20. Test compounds were diluted with DMSO. Test compounds and human PHD2184-418 was added to the 384-well plate (Corning, black, opaque bottom) in advance. The reaction was started by the addition of FITC-labeled HIF-1α556-574. After incubating at 37° C. for 60 minutes, fluorescence polarization (excitation wavelength: 470 nm, fluorescence wavelength: 530 nm) was measured by PHERAstar FSX (BMG Labtech). Fluorescence polarization of each well was measured, and human PHD2 binding inhibitory activity of test compounds was calculated based on the value of test compound-free group.

Chain of human PHD2184-418 (Q9GZT9 184-418): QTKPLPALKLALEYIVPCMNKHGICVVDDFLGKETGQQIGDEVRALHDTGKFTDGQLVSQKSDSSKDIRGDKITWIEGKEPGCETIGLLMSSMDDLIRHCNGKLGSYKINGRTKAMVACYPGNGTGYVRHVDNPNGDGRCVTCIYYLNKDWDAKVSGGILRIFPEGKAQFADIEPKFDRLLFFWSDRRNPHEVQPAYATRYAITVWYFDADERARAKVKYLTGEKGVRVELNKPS

Row | IC50 | SMILES
1 | 0.77 µM | Cn1c(C(=O)O)cnc1CN1CC[C@H](n2c(=O)n(-c3cccc(-c4ccccc4)c3)c3cccnc32)C1 [Example 54, (S)-2-((3-(1-([1,1′-Biphenyl]-3-yl)-2-oxo-1,2-dihydro-3H-imidazo[4,5-b]pyridin-3-yl)pyrrolidin-1-yl)methyl)-1-methyl-1H-imidazole-5-carboxylic acid]
2 | 0.49 µM | CN(C)c1ccc(-n2c(=O)n([C@H]3CCN(Cc4ncc(C(=O)O)n4C)C3)c3ncccc32)cc1 [Example 55, (S)-2-((3-(1-(4-(Dimethylamino)phenyl)-2-oxo-1,2-dihydro-3H-imidazo[4,5-b]pyridin-3-yl)pyrrolidin-1-yl)methyl)-1-methyl-1H-imidazole-5-carboxylic acid]
3 | 0.41 µM | Cn1c(C(=O)O)cnc1CN1CC[C@H](n2c(=O)n(-c3ccc(Oc4ccccc4)cc3)c3cccnc32)C1 [Example 56, (S)-1-Methyl-2-((3-(2-oxo-1-(4-phenoxyphenyl)-1,2-dihydro-3H-imidazo[4,5-b]pyridin-3-yl)pyrrolidin-1-yl)methyl)-1H-imidazole-5-carboxylic acid]
4 | 0.71 µM | Cn1c(C(=O)O)cnc1CN1CC[C@H](n2c(=O)n(-c3ccc(Cc4ccccc4)cc3)c3cccnc32)C1 [Example 57, (S)-2-((3-(1-(4-Benzylphenyl)-2-oxo-1,2-dihydro-3H-imidazo[4,5-b]pyridin-3-yl)pyrrolidin-1-yl)methyl)-1-methyl-1H-imidazole-5-carboxylic acid]
5 | 1.02 µM | Cc1ccc(-n2c(=O)n([C@H]3CCN(Cc4ncc(C(=O)O)n4C)C3)c3ncccc32)cc1 [Example 58, (S)-1-Methyl-2-((3-(2-oxo-1-(p-tolyl)-1,2-dihydro-3H-imidazo[4,5-b]pyridin-3-yl)pyrrolidin-1-yl)methyl)-1H-imidazole-5-carboxylic acid]
6 | 0.18 µM | Cn1c(C(=O)O)cnc1CN1CC[C@H](n2c(=O)n(-c3ccc(Cl)cc3)c3cccnc32)C1 [Example 59, (S)-2-((3-(1-(4-Chlorophenyl)-2-oxo-1,2-dihydro-3H-imidazo[4,5-b]pyridin-3-yl)pyrrolidin-1-yl)methyl)-1-methyl-1H-imidazole-5-carboxylic acid]
7 | 0.59 µM | CSc1ccc(-n2c(=O)n([C@H]3CCN(Cc4ncc(C(=O)O)n4C)C3)c3ncccc32)cc1 [Example 60, (S)-1-Methyl-2-((3-(1-(4-(methylthio)phenyl)-2-oxo-1,2-dihydro-3H-imidazo[4,5-b]pyridin-3-yl)pyrrolidin-1-yl)methyl)-1H-imidazole-5-carboxylic acid]
8 | 1.85 µM | Cn1c(C(=O)O)cnc1CN1CC[C@H](n2c(=O)n(-c3ccc(OC(F)(F)F)cc3)c3cccnc32)C1 [Example 62, (S)-1-Methyl-2-((3-(2-oxo-1-(4-(trifluoromethoxy)phenyl)-1,2-dihydro-3H-imidazo[4,5-b]pyridin-3-yl)pyrrolidin-1-yl)methyl)-1H-imidazole-5-carboxylic acid]
9 | 1.92 µM | Cn1c(C(=O)O)cnc1CN1CC[C@H](n2c(=O)n(-c3ccc(C(F)(F)F)cc3)c3cccnc32)C1 [Example 63, (S)-1-Methyl-2-((3-(2-oxo-1-(4-(trifluoromethyl)phenyl)-1,2-dihydro-3H-imidazo[4,5-b]pyridin-3-yl)pyrrolidin-1-yl)methyl)-1H-imidazole-5-carboxylic acid]
10 | 7.89 µM | Cn1c(C(=O)O)cnc1CN1CC[C@H](n2c(=O)n(-c3ccc(C#N)cc3)c3cccnc32)C1 [Example 64, (S)-2-((3-(1-(4-Cyanophenyl)-2-oxo-1,2-dihydro-3H-imidazo[4,5-b]pyridin-3-yl)pyrrolidin-1-yl)methyl)-1-methyl-1H-imidazole-5-carboxylic acid]
11 | 2.4 µM | Cn1c(C(=O)O)cnc1CN1CC[C@H](n2c(=O)n(-c3ccc([N+](=O)[O-])cc3)c3cccnc32)C1 [Example 65, (S)-1-Methyl-2-((3-(1-(4-nitrophenyl)-2-oxo-1,2-dihydro-3H-imidazo[4,5-b]pyridin-3-yl)pyrrolidin-1-yl)methyl)-1H-imidazole-5-carboxylic acid]
12 | 1.17 µM | Cn1c(C(=O)O)cnc1CN1CC[C@H](n2c(=O)n(-c3cnc4ccccc4c3)c3cccnc32)C1 [Example 66, (S)-1-Methyl-2-((3-(2-oxo-1-(quinolin-3-yl)-1,2-dihydro-3H-imidazo[4,5-b]pyridin-3-yl)pyrrolidin-1-yl)methyl)-1H-imidazole-5-carboxylic acid]
13 | 0.52 µM | Cn1c(C(=O)O)cnc1CN1CC[C@H](n2c(=O)n(-c3ccc(N4CCOCC4)cc3)c3cccnc32)C1 [Example 67, (S)-1-Methyl-2-((3-(1-(4-morpholinophenyl)-2-oxo-1,2-dihydro-3H-imidazo[4,5-b]pyridin-3-yl)pyrrolidin-1-yl)methyl)-1H-imidazole-5-carboxylic acid]
14 | 8.15 µM | Cn1c(C(=O)O)cnc1CN1CC[C@H](n2c(=O)n(C3CCC(c4ccccc4)CC3)c3cccnc32)C1 (stereo partly drawn) [Example 68, (S)-1-Methyl-2-((3-(2-oxo-1-(4-phenylcyclohexyl)-1,2-dihydro-3H-imidazo[4,5-b]pyridin-3-yl)pyrrolidin-1-yl)methyl)-1H-imidazole-5-carboxylic acid]
15 | 0.5 µM | C=Cc1ccc(-n2c(=O)n([C@H]3CCN(Cc4ncc(C(=O)O)n4C)C3)c3ncccc32)cc1 [Example 69, (S)-1-Methyl-2-((3-(2-oxo-1-(4-vinylphenyl)-1,2-dihydro-3H-imidazo[4,5-b]pyridin-3-yl)pyrrolidin-1-yl)methyl)-1H-imidazole-5-carboxylic acid]
16 | 1.45 µM | Cn1c(C(=O)O)cnc1CN1CC[C@H](n2c(=O)n(-c3ccsc3)c3cccnc32)C1 [Example 70, (S)-1-Methyl-2-((3-(2-oxo-1-(thiophen-3-yl)-1,2-dihydro-3H-imidazo[4,5-b]pyridin-3-yl)pyrrolidin-1-yl)methyl)-1H-imidazole-5-carboxylic acid]
17 | 13.9 µM | Cn1c(C(=O)O)cnc1CN1CC[C@H](n2c(=O)n(Cc3ccccc3)c3cccnc32)C1 [Example 71, (S)-2-((3-(1-Benzyl-2-oxo-1,2-dihydro-3H-imidazo[4,5-b]pyridin-3-yl)pyrrolidin-1-yl)methyl)-1-methyl-1H-imidazole-5-carboxylic acid]
18 | 3 µM | Cn1c(C(=O)O)cnc1CN1CC[C@H](n2c(=O)n(-c3ccc(O)cc3)c3cccnc32)C1 [Example 73, (S)-2-((3-(1-(4-Hydroxyphenyl)-2-oxo-1,2-dihydro-3H-imidazo[4,5-b]pyridin-3-yl)pyrrolidin-1-yl)methyl)-1-methyl-1H-imidazole-5-carboxylic acid]
19 | 1.85 µM | Cn1c(C(=O)O)cnc1CN1CC[C@H](n2c(=O)n(-c3ccc(-c4ccc(NS(C)(=O)=O)cc4)cc3)c3cccnc32)C1 [Example 74, (S)-1-Methyl-2-((3-(1-(4′-(methylsulfonamido)-[1,1′-biphenyl]-4-yl)-2-oxo-1,2-dihydro-3H-imidazo[4,5-b]pyridin-3-yl)pyrrolidin-1-yl)methyl)-1H-imidazole-5-carboxylic acid]
20 | 99.9 µM | Cc1cccnc1CN1CC[C@H](n2c(=O)n(-c3ccc(C(=O)NCC(=O)O)cc3)c3cccnc32)C1 [Example 75, (S)-(4-(3-(1-((3-Methylpyridin-2-yl)methyl)pyrrolidin-3-yl)-2-oxo-2,3-dihydro-1H-imidazo[4,5-b]pyridin-1-yl)benzoyl)glycine]
21 | 9.74 µM | Cn1c(C(=O)O)cnc1CN1CC[C@H](n2c(=O)n(-c3ccc(-c4ccccc4)cc3)c3ccc(C(=O)NC4CCOCC4)nc32)C1 [Example 76, (S)-2-((3-(1-([1,1′-Biphenyl]-4-yl)-2-oxo-5-((tetrahydro-2H-pyran-4-yl)carbamoyl)-1,2-dihydro-3H-imidazo[4,5-b]pyridin-3-yl)pyrrolidin-1-yl)methyl)-1-methyl-1H-imidazole-5-carboxylic acid]
22 | 0.61 µM | Cn1c(C(=O)O)cnc1CN1CC[C@H](n2c(=O)n(-c3ccc(-c4ccccc4)cc3)c3ccc(C(=O)NCC(=O)O)nc32)C1 [Example 77, (S)-2-((3-(1-([1,1′-Biphenyl]-4-yl)-5-((carboxymethyl)carbamoyl)-2-oxo-1,2-dihydro-3H-imidazo[4,5-b]pyridin-3-yl)pyrrolidin-1-yl)methyl)-1-methyl-1H-imidazole-5-carboxylic acid]
23 | 11 µM | Cn1c(C(=O)O)cnc1CN1CC[C@H](n2c(=O)n(-c3ccc(C(=O)NCC(=O)O)nc3)c3cccnc32)C1 [Example 78, (S)-2-((3-(1-(6-((Carboxymethyl)carbamoyl)pyridin-3-yl)-2-oxo-1,2-dihydro-3H-imidazo[4,5-b]pyridin-3-yl)pyrrolidin-1-yl)methyl)-1-methyl-1H-imidazole-5-carboxylic acid]
24 | 65.9 µM | Cn1c(C#N)cnc1CN1CC[C@H](n2c(=O)n(-c3ccc(-c4ccncc4)cc3)c3cccnc32)C1 [Example 80, (S)-1-Methyl-2-((3-(2-oxo-1-(4-(pyridin-4-yl)phenyl)-1,2-dihydro-3H-imidazo[4,5-b]pyridin-3-yl)pyrrolidin-1-yl)methyl)-1H-imidazole-5-carbonitrile]
